Results as given in ChEMBL document CHEMBL1156943, “Toward the development of potent and selective bisubstrate inhibitors of protein arginine methyltransferases” (Bioorg Med Chem Lett, 2010).

Experiments:
[1] = biological target: T1, Histone-lysine N-methyltransferase SETD7 (Homo sapiens) (UniProt Q8WTS6); assay: Inhibition of GST-fused human recombinant SET7 at 100 uM after 90 mins by SDS-PAGE based scintillation counting
T1 sequence (whole entry): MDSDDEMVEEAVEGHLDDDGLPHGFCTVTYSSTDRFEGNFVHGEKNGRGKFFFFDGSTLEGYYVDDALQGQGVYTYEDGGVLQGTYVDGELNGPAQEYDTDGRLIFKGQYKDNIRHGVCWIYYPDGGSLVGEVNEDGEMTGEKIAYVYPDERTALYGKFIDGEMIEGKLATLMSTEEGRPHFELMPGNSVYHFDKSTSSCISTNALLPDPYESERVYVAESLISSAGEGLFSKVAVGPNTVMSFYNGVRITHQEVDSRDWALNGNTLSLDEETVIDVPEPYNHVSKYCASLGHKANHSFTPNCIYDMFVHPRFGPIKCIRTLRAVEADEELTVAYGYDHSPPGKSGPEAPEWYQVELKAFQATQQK

[2] = biological target: T2, Protein arginine N-methyltransferase 1 (Homo sapiens, UniProt Q99873); assay: Inhibition of GST-fused human recombinant PRMT1 after 90 mins by SDS-PAGE based scintillation counting
Target sequence in this assay (Q99873 whole entry, the tested form may be a part): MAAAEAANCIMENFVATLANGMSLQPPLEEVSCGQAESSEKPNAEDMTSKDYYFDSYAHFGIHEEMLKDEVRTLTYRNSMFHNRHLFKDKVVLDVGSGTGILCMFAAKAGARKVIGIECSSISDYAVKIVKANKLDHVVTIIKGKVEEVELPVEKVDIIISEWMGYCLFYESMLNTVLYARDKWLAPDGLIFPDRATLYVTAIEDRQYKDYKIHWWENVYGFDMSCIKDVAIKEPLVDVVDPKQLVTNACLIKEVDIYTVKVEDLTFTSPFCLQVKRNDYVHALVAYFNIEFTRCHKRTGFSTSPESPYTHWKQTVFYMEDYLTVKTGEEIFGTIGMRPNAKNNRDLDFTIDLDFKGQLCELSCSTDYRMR

[3] = biological target: T3, Histone-lysine N-methyltransferase SETD7 (Homo sapiens, UniProt Q8WTS6); assay: Inhibition of GST-fused human recombinant SET7 after 90 mins by SDS-PAGE based scintillation counting
T3 sequence (Q8WTS6 whole entry): T1 sequence (whole entry)

[4] = biological target: T2, Protein arginine N-methyltransferase 1; assay: Inhibition of GST-fused human recombinant PRMT1 at 100 uM after 90 mins by SDS-PAGE based scintillation counting
Target sequence in this assay (Q99873 whole entry, looked up, the tested form may be a part): as the sequence (Q99873 whole entry, the tested form may be a part) above

| SMILES | inhibition [1] | IC50 [2] | IC50 [3] | inhibition [4] |
| --- | --- | --- | --- | --- |
| N=C(N)NCCCCN(CC[C@H](N)C(=O)O)C[C@H]1O[C@@H](n2cnc3c(N)ncnc32)[C@H](O)[C@@H]1O | 49% | 2900 nM | – | – |
| Nc1ncnc2c1ncn2[C@@H]1O[C@H](C[C@@H](N)CC[C@H](N)C(=O)O)[C@@H](O)[C@H]1O [SINEFUNGIN] | – | – | 2500 nM | – |
| N=C(N)NCCCN(CC[C@H](N)C(=O)O)C[C@H]1O[C@@H](n2cnc3c(N)ncnc32)[C@H](O)[C@@H]1O | 56.5% | 6200 nM | – | – |
| N=C(N)NCCn1cc(CN(CC[C@H](N)C(=O)O)C[C@H]2O[C@@H](n3cnc4c(N)ncnc43)[C@H](O)[C@@H]2O)nn1 | > 50% | – | – | > 50% |
| N=C(N)NCCCCCN(CC[C@H](N)C(=O)O)C[C@H]1O[C@@H](n2cnc3c(N)ncnc32)[C@H](O)[C@@H]1O | 55% | – | – | – |
| C#CCN(CC[C@H](NC(=O)OC(C)(C)C)C(=O)OC(C)(C)C)C[C@H]1O[C@@H](n2cnc3c(N)ncnc32)[C@@H]2OC(C)(C)O[C@@H]21 | 63% | – | – | 77% |
| C#CCN(CC[C@H](N)C(=O)O)C[C@H]1O[C@@H](n2cnc3c(N)ncnc32)[C@H](O)[C@@H]1O | 75% | – | – | 50% |
